Where a SMILES comes first, the peptide text is derived from it. Bridges are numbered along the chain shown (N, C = ends). [ ]: non-standard residue; d: D form. The star is where a group is joined. Phe(3,5-F2) = N[C@@H](Cc1cc(F)cc(F)c1)C(=O)O; Pip(4S-Me) = C[C@H]1CCN[C@H](C(=O)O)C1; 2Nal = N[C@@H](Cc1ccc2ccccc2c1)C(=O)O; Hexadienoyl(2E,4E) = C/C=C/C=C/C(=O)*; Pro(4R-Me) = C[C@H]1CN[C@H](C(=O)O)C1; Tiq1c(1S) = O=C(O)[C@H]1NCCc2ccccc21; Bta = N[C@@H](Cc1csc2ccccc12)C(=O)O; X12 = O=C(/C=C/c1cccc(C(F)(F)F)c1)*; Heptenoyl(2E) = CCCC/C=C/C(=O)*; Cha = N[C@@H](CC1CCCCC1)C(=O)O; aThr = C[C@H](O)[C@H](N)C(=O)O; Pip = O=C(O)[C@@H]1CCCCN1; X2 = O=C(/C=C/CC1CCCCC1)*; NMeA = CN[C@@H](C)C(=O)O; X11 = O=C(/C=C/C=C/CO)*; Abu = CC[C@H](N)C(=O)O; Cbz = O=C(OCc1ccccc1)*; Dap = NC[C@H](N)C(=O)O; Boc = CC(C)(C)OC(=O)*; X4 = CCCCC/C=C/C(=O)*; X6 = CCCC/C=C\C(=O)*; X5 = CCCCCC#CC(=O)*; X7 = CCC/C=C\C(=O)*; X10 = CCCC#CC(=O)*
Target: T1, human mitochondrial CIpP (HsCIpP) (Homo sapiens, UniProt Q16740)
T1 construct: made in house; host or cells: E. coli SG1146 (BL21(DE3) ΔclpP::cat)
T1 sequence (Q16740 57-277): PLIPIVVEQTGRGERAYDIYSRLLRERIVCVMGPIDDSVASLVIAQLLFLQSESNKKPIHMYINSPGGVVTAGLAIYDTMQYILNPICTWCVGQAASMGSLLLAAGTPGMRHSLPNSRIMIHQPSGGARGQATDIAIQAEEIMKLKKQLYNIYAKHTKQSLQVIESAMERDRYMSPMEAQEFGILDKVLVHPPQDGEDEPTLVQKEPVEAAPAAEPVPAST
Experiment: Screen of ADEP analogs against HsCIpP: relative degradation (RD) index, casein-FITC degradation relative to E. coli CIpAP
Format: biochemical
Parameters: key: casein-FITC degradation by HsClpP relative to EcClpAP
Conditions: for Hs RD1: RD value at 1 μM of the ADEP analog; for Hs RD5: RD value at 5 μM of the ADEP analog; for Hs RD25: RD value at 25 μM of the ADEP analog, measure of ability to activate HsCIpP
Description: Structural analogs of acyldepsipeptide (ADEP) (Goodreid et al., 2016) that were previously developed as potential antibiotics against bacterial CIpP were screened and assessed for their ability to activate and dysregulate the protease activity of HsCIpP, by measuring their relative degradation (RD) index. Note that ADEP-28 was also previously reported by Carney et al. (2014). Details of the experimental protocol have been described in Leung et al., 2011. The RD index is defined as follows: […]
Δφ is the change in fluorescence after 6 hr of starting the reaction measured using 485 nm excitation and 535 nm emission, which primarily detects the signal from casein-FITC. E. coli CIpAP was used as a benchmark for maximum CIpP proteolytic activity. The CIpP in the numerator can be from any other organism. RD25 measurements refer to the measurement in the presence of 25 μM compound. All ADEP analogs were first screened at 25 μM, and their RD25 scores were calculated using the above formula and method as described in Leung et al., 2011 (FIG. 1A). Those that achieved RD25≥0.87 were screened a second time at 5 μM, followed by calculation of their RD5 scores. The top analogs with RD5≥0.74 were screened a third time at 1 μM, followed by calculation of their RD1 scores (FIG. 1B).
To identify ADEP analogs that allow HsCIpP to degrade folded proteins independent of HsCIpX+ATP (i.e., that activate or dysregulate HsCIpP), the inventors employed the in vitro screening method that was used for identifying small molecule activators of Escherichia coli CIpP (EcCIpP) (Leung et al., 2011). In this approach, the ability of HsCIpP to degrade FITC-labeled casein (casein-FITC) was measured and compared to the ability of EcCIpAP to degrade casein-FITC. This is quantitatively expressed as relative degradation (RD) index (Leung et al., 2011).

Hs RD1	Hs RD5	Hs RD25	Compound
0.79	0.96	1.03	CCCC/C=C/C(=O)N[C@@H](Cc1cc(F)cc(F)c1)C(=O)N[C@H]1CNC(=O)[C@@H]2C[C@@H](C)CN2C(=O)[C@H](C)NC(=O)[C@@H]2CCCCN2C(=O)[C@@H]2CCCN2C1=O [ADEP-32] ({Heptenoyl(2E)}-[Phe(3,5-F2)][Dap]P[Pip]A[Pro(4R-Me)]; lactam 2-C)
–	–	0.07	CCC/C=C\C(=O)N[C@@H](Cc1ccccc1)C(=O)N[C@H]1COC(=O)[C@@H]2CCCN2C(=O)[C@H](C)NC(=O)[C@H](C)N(C)C(=O)[C@@H]2CCCN2C1=O [ADEP-33] (X7-FSP[NMeA]AP; ester 2-C)
–	–	0.00	C[C@@H]1NC(=O)[C@H](C)N(C)C(=O)[C@@H]2CCCN2C(=O)[C@@H](NC(=O)[C@H](Cc2ccccc2)NC(=O)OC(C)(C)C)COC(=O)[C@@H]2CCCN2C1=O [ADEP-34] (Boc-FSP[NMeA]AP; ester 2-C)
–	–	0.00	C[C@@H]1C[C@H]2C(=O)OC[C@H](NC(=O)[C@H](Cc3ccccc3)NC(=O)OC(C)(C)C)C(=O)N3CCC[C@H]3C(=O)N(C)[C@@H](C)C(=O)N[C@@H](C)C(=O)N2C1 [ADEP-35] (Boc-FSP[NMeA]A[Pro(4R-Me)]; ester 2-C)
–	–	0.00	C[C@@H]1C[C@H]2C(=O)OC[C@H](NC(=O)[C@H](Cc3ccccc3)NC(=O)/C=C/C=C/CO)C(=O)N3CCC[C@H]3C(=O)N(C)[C@@H](C)C(=O)N[C@@H](C)C(=O)N2C1 [ADEP-36] (X11-FSP[NMeA]A[Pro(4R-Me)]; ester 2-C)
0.68	0.86	0.92	CCCC/C=C/C(=O)N[C@@H](Cc1cc(F)cc(F)c1)C(=O)N[C@H]1COC(=O)[C@@H]2C[C@@H](C)CN2C(=O)[C@H](C)NC(=O)[C@@H]2c3ccccc3CCN2C(=O)[C@@H]2CCCN2C1=O [ADEP-37] ({Heptenoyl(2E)}-[Phe(3,5-F2)]SP[Tiq1c(1S)]A[Pro(4R-Me)]; ester 2-C)
0.76	0.89	0.95	CCCC/C=C/C(=O)N[C@@H](Cc1cc(F)cc(F)c1)C(=O)N[C@@H]1C(=O)N2CCC[C@H]2C(=O)N2CC[C@H](C)C[C@H]2C(=O)N[C@@H](C)C(=O)N2C[C@H](C)C[C@H]2C(=O)O[C@H]1C [ADEP-38] ({Heptenoyl(2E)}-[Phe(3,5-F2)][aThr]P[Pip(4S-Me)]A[Pro(4R-Me)]; ester 2-C)
–	–	0.78	C[C@@H]1C[C@H]2C(=O)O[C@@H](C)[C@H](NC(=O)[C@H](Cc3cc(F)cc(F)c3)NC(=O)/C=C/c3cccc(C(F)(F)F)c3)C(=O)N3CCC[C@H]3C(=O)N3CC[C@H](C)C[C@H]3C(=O)N[C@@H](C)C(=O)N2C1 [ADEP-39] (X12-[Phe(3,5-F2)][aThr]P[Pip(4S-Me)]A[Pro(4R-Me)]; ester 2-C)
–	–	0.00	C[C@@H]1NC(=O)[C@H](C)N(C)C(=O)[C@@H]2CCCN2C(=O)[C@@H](NC(=O)[C@@H](N)Cc2ccccc2)COC(=O)[C@@H]2CCCN2C1=O [ADEP-40] (H-FSP[NMeA]AP; ester 2-C)
–	0.49	0.87	CCCC/C=C/C(=O)N[C@@H](Cc1csc2ccccc12)C(=O)N[C@H]1COC(=O)[C@@H]2C[C@@H](C)CN2C(=O)[C@H](C)NC(=O)[C@@H]2CCCCN2C(=O)[C@@H]2CCCN2C1=O [ADEP-42] ({Heptenoyl(2E)}-[Bta]SP[Pip]A[Pro(4R-Me)]; ester 2-C)
–	0.55	0.87	CCCC/C=C/C(=O)N[C@@H](Cc1ccc2ccccc2c1)C(=O)N[C@H]1COC(=O)[C@@H]2C[C@@H](C)CN2C(=O)[C@H](C)NC(=O)[C@@H]2CCCCN2C(=O)[C@@H]2CCCN2C1=O [ADEP-43] ({Heptenoyl(2E)}-[2Nal]SP[Pip]A[Pro(4R-Me)]; ester 2-C)
–	–	0.29	CCCC/C=C/C(=O)N[C@@H](Cc1c(F)c(F)c(F)c(F)c1F)C(=O)N[C@H]1COC(=O)[C@@H]2C[C@@H](C)CN2C(=O)[C@H](C)NC(=O)[C@@H]2CCCCN2C(=O)[C@@H]2CCCN2C1=O [ADEP-45]

The remaining lines, values behind:

Compound	Hs RD1	Hs RD5	Hs RD25
C[C@@H]1C[C@H]2C(=O)O[C@@H](C)[C@H](NC(=O)[C@H](Cc3cc(F)cc(F)c3)NC(=O)/C=C/CC3CCCCC3)C(=O)N3CCC[C@H]3C(=O)N3CCCC[C@H]3C(=O)N[C@@H](C)C(=O)N2C1 [ADEP-17] (X2-[Phe(3,5-F2)][aThr]P[Pip]A[Pro(4R-Me)]; ester 2-C)	0.86	0.91	1.02
CCCCC/C=C/C(=O)N[C@@H](Cc1ccccc1)C(=O)N[C@H]1COC(=O)[C@@H]2CCCN2C(=O)[C@H](C)NC(=O)[C@H](C)N(C)C(=O)[C@@H]2CCCN2C1=O [ADEP-18] (X4-FSP[NMeA]AP; ester 2-C)	–	0.72	1.07
CCCC/C=C\C(=O)N[C@@H](Cc1ccccc1)C(=O)N[C@H]1COC(=O)[C@@H]2CCCN2C(=O)[C@H](C)NC(=O)[C@H](C)N(C)C(=O)[C@@H]2CCCN2C1=O [ADEP-19] (X6-FSP[NMeA]AP; ester 2-C)	–	–	0.34
CCC/C=C/C(=O)N[C@@H](Cc1cccc(F)c1)C(=O)N[C@H]1COC(=O)[C@@H]2C[C@@H](C)CN2C(=O)[C@H](C)NC(=O)[C@@H]2CCCCN2C(=O)[C@@H]2CCCN2C1=O [ADEP-20]	0.53	0.90	1.04
CCCC/C=C/C(=O)N[C@@H](CC1CCCCC1)C(=O)N[C@H]1COC(=O)[C@@H]2C[C@@H](C)CN2C(=O)[C@H](C)NC(=O)[C@@H]2CCCCN2C(=O)[C@@H]2CCCN2C1=O [ADEP-21] ({Heptenoyl(2E)}-[Cha]SP[Pip]A[Pro(4R-Me)]; ester 2-C)	–	0.70	1.00
C[C@@H]1NC(=O)[C@H](C)N(C)C(=O)[C@@H]2CCCN2C(=O)[C@@H](NC(=O)[C@H](Cc2ccccc2)NC(=O)OCc2ccccc2)COC(=O)[C@@H]2CCCN2C1=O [ADEP-22] (Cbz-FSP[NMeA]AP; ester 2-C)	–	–	0.00
CCCC#CC(=O)N[C@@H](Cc1ccccc1)C(=O)N[C@H]1COC(=O)[C@@H]2CCCN2C(=O)[C@H](C)NC(=O)[C@H](C)N(C)C(=O)[C@@H]2CCCN2C1=O [ADEP-23] (X10-FSP[NMeA]AP; ester 2-C)	–	–	0.12
C[C@@H]1NC(=O)[C@@H]2CCCCN2C(=O)[C@@H]2CCCN2C(=O)[C@@H](NC(=O)[C@H](Cc2ccccc2)NC(=O)c2ccc([N+](=O)[O-])cc2)COC(=O)[C@@H]2CCCN2C1=O [ADEP-24]	–	–	0.00
CCCC/C=C/C(=O)N[C@@H](Cc1cc(F)cc(F)c1)C(=O)N[C@H]1COC(=O)[C@@H]2C[C@@H](C)CN2C(=O)[C@H](CC)NC(=O)[C@@H]2CCCCN2C(=O)[C@@H]2CCCN2C1=O [ADEP-25] ({Heptenoyl(2E)}-[Phe(3,5-F2)]SP[Pip][Abu][Pro(4R-Me)]; ester 2-C)	0.61	0.92	0.97
C/C=C/C=C/C(=O)N[C@@H](Cc1ccccc1)C(=O)N[C@H]1COC(=O)[C@@H]2CCCN2C(=O)[C@H](C)NC(=O)[C@H](C)N(C)C(=O)[C@@H]2CCCN2C1=O [ADEP-26] ({Hexadienoyl(2E,4E)}-FSP[NMeA]AP; ester 2-C)	–	–	0.86
CCCCCC#CC(=O)N[C@@H](Cc1ccccc1)C(=O)N[C@H]1COC(=O)[C@@H]2CCCN2C(=O)[C@H](C)NC(=O)[C@H](C)N(C)C(=O)[C@@H]2CCCN2C1=O [ADEP-27] (X5-FSP[NMeA]AP; ester 2-C)	–	–	0.64
CCCC/C=C/C(=O)N[C@@H](Cc1cc(F)cc(F)c1)C(=O)N[C@@H]1C(=O)N2CCC[C@H]2C(=O)N2CCCC[C@H]2C(=O)N[C@@H](C)C(=O)N2C[C@H](C)C[C@H]2C(=O)O[C@H]1C [ADEP-29] ({Heptenoyl(2E)}-[Phe(3,5-F2)][aThr]P[Pip]A[Pro(4R-Me)]; ester 2-C)	0.76	0.87	0.92
CCCC/C=C/C(=O)N[C@@H](Cc1cc(F)cc(F)c1)C(=O)N[C@H]1COC(=O)[C@@H]2C[C@@H](C)CN2C(=O)[C@H](C)NC(=O)[C@@H]2C[C@@H](C)CCN2C(=O)[C@@H]2CCCN2C1=O [ADEP-30] ({Heptenoyl(2E)}-[Phe(3,5-F2)]SP[Pip(4S-Me)]A[Pro(4R-Me)]; ester 2-C)	0.69	0.93	0.98
C[C@@H]1C[C@H]2C(=O)OC[C@H](NC(=O)[C@@H](N)Cc3ccccc3)C(=O)N3CCC[C@H]3C(=O)N(C)[C@@H](C)C(=O)N[C@@H](C)C(=O)N2C1 [ADEP-31] (H-FSP[NMeA]A[Pro(4R-Me)]; ester 2-C)	–	–	0.00

From patent US20210171576A1, “METHODS FOR TREATING CANCER WITH ACYLDEPSIPEPTIDE ANALOGS” (priority 2018, published 2021)
